Among the data in patent US20160129011A1, “BICYCLO 2,3-BENZODIAZEPINES AND SPIROCYCLICALLY SUBSTITUTED 2,3-BENZODIAZEPINES” (BAYER PHARMA AKTIENGESELLSCHAFT, priority 2013, published 2016) are IC50 values, retold here.

The target of test [1] is T1, BRD4 (BD1) (Homo sapiens, UniProt O60885).
T1 construct: longer constructs also being possible, preferably amino acids 44-168; made in house; host or cells: E. coli
In words: Binding assay BRD4/acetylated peptide H4 (TR-FRET protein-protein interaction assay). To be noted: BRD4 (BD1) / acetylated histone H4 peptide. In a few lines:
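His6-tagged BRD4 BD1 (aa 67-152, E. coli-expressed, typically 10 nM) was used with a biotinylated tetra-acetylated H4 peptide, and compounds at 0.1 nM–20 μM in duplicate. After 10 min preincubation, mixtures were incubated 1 h at 22 °C, then ≥3 h at 4 °C. Read-out was the TR-FRET 665/622 nm ratio (Eu-streptavidin to anti-His-XL665); IC50 from a 4-parameter fit.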
(In general: In TR-FRET formats the signal depends on donor and acceptor labels being close together.)

For test [2], the system named is MOLM-13 cells. In words: Cell proliferation assay (alamarBlue), MOLM-13. The test is classed as cell-based. To be noted: acute myeloid leukaemia cell line, 96 h incubation. As for the experimental part: (§1) In accordance with the invention, the ability of the substances to inhibit cell proliferation was determined. Cell viability was determined by means of the alamarBlue® reagent (Invitrogen) in a Victor X3 Multilabel Reader (Perkin Elmer). The excitation wavelength was 530 nm and the emission wavelength […].
The MOLM-13 cells (DSMZ, ACC 554) were sown at a concentration of 4000 cells/well in 100 μl of growth medium (RPMI1640, 10% FCS) on 96-well microtitre plates.
(§2) The MDA-MB-231 cells (DSMZ, ACC 732) were sown at a concentration of 4000 cells/well in 100 μl of growth medium (DMEM/Ham's F12 medium, 10% FCS) on 96-well microtitre plates. After overnight incubation at 37° C., the fluorescence values (CI values) were determined. Then the plates were treated with various substance dilutions (1E-5 M, 3E-6 M, 1E-6 M, 3E-7 M, 1E-7 M, 3E-8 M, 1E-8 M) and incubated at 37° C. for 72 (MV4-11, LOX-IMVI cells), 96 (MOLM-13, B16F10, […] cells), 120 (MOLP-8, KMS-12-PE cells) or 168 (LAPC-4 cells) hours. Subsequently, the fluorescence values were determined (CO values). For the data analysis, the CI values were subtracted from the CO values and the results were compared between cells which had been treated with various dilutions of the substance or only with buffer solution. This was used to calculate the IC50 values (substance concentration required for 50% inhibition of cell proliferation).
(§3) The substances were examined in the cell lines of Table 1 which, in an exemplary manner, represent the stated indications: […]
In general terms: Resazurin is reduced to fluorescent resorufin, in cell work by metabolically active cells.

Test [3] has as its system B16F10 cells. In words: Cell proliferation assay (alamarBlue), B16F10. Format: cell-based. Particulars: melanoma (BRAF wild-type) cell line, 96 h incubation. As for the experimental part:
as §1
The B16F10 cells (ATCC, CRL-6475) were sown at a concentration of 300-500 cells/well in 100 μl of growth medium (DMEM with phenol red, 10% FCS) on 96-well microtitre plates.
as §2, §3

Test [4] concerns MOLP-8 cells. As to the kind of experiment: Cell proliferation assay (alamarBlue), MOLP-8. Format: cell-based. Particulars: multiple myeloma cell line, 120 h incubation. The method, then:
as §1
The MOLP-8 cells (DSMZ, ACC 569) were sown at a concentration of 4000 cells/well in 100 μl of growth medium (RPMI1640, 20% FCS) on 96-well microtitre plates.
as §2, §3

As usually defined, the IC50 is the concentration that gives 50% inhibition.

On to `CNC(=O)N1N=C(c2ccc(N3CCC4OCCC4C3)cc2)c2cc(OC)c(OC)cc2CC1C` (racemic) [Example 36, (±)-1-[4-(hexahydrofuro[3,2-c]pyridin-5(4H)-yl)phenyl]-7,8-dimethoxy-N,4-dimethyl-4,5-dihydro-3H-2,3-benzodiazepine-3-carboxamide], for which the half-inhibitory concentration (IC50) stood at 40 nM in test [1]; 150 nM in test [2] (Homo sapiens, MOLM-13); 70 nM in test [3] (Mus musculus, B16-F10); 90 nM in test [4] (Homo sapiens, MOLP-8).
The matching figures for `CNC(=O)N1N=C(c2ccc(N3CC4(CCC4)C3)cc2)c2cc(OC)c(OC)cc2CC1C` (racemic) [Example 37, (±)-1-[4-(2-Azaspiro[3.3]hept-2-yl)phenyl]-7,8-dimethoxy-N,4-dimethyl-4,5-dihydro-3H-2,3-benzodiazepine-3-carboxamide]: 170 nM, 420 nM, 420 nM and 450 nM.
For the compound `CNC(=O)N1N=C(c2ccc(N3CC4(CN(C)C4)C3)cc2)c2cc(OC)c(OC)cc2CC1C` (racemic) [Example 38, (±)-7,8-Dimethoxy-N,4-dimethyl-1-[4-(6-methyl-2,6-diazaspiro[3.3]hept-2-yl)phenyl]-4,5-dihydro-3H-2,3-benzodiazepine-3-carboxamide], the IC50 in test [1] was 100 nM; in test [2] (Homo sapiens, MOLM-13), 170 nM; in test [3] (Mus musculus, B16-F10), 400 nM; in test [4] (Homo sapiens, MOLP-8), 140 nM.
The matching figures for `CNC(=O)N1N=C(c2ccc(N3C[C@@H]4C[C@H]3CN4)cc2)c2cc(OC)c(OC)cc2CC1C` (relative stereo) [Example 19, [1S-(1R*,4R*)]-1-[4-(2,5-Diazabicyclo[2.2.1]hept-2-yl)phenyl]-7,8-dimethoxy-4,5-dihydro-N,4-dimethyl-3H-2,3-benzodiazepine-3-carboxamide]: 140 nM, 170 nM, 150 nM and 100 nM.
The matching figures for `CNC(=O)N1N=C(c2ccc(F)c(N3C[C@@H]4C[C@H]3CN4)c2)c2cc(OC)c(OC)cc2CC1C` (relative stereo) [Example 20, [1S-(1R*,4R*)]-1-[3-(2,5-diazabicyclo[2.2.1]hept-2-yl)-4-fluorophenyl]-7,8-dimethoxy-4,5-dihydro-N,4-dimethyl-3H-2,3-benzodiazepine-3-carboxamide]: 410 nM, 1070 nM, 1430 nM and 770 nM.
Consider `CNC(=O)N1N=C(c2ccc(N3C[C@@H]4C[C@H]3CN4C)cc2)c2cc(OC)c(OC)cc2CC1C` (relative stereo) [Example 40, [1S-(1R*,4R*)]-7,8-Dimethoxy-N,4-dimethyl-1-[4-(5-methyl-2,5-diazabicyclo[2.2.1]hept-2-yl)phenyl]-4,5-dihydro-3H-2,3-benzodiazepine-3-carboxamide], for which the concentration for half-maximal inhibition (IC50) in test [1] amounted to 180 nM; in test [2] (Homo sapiens, MOLM-13), 390 nM; in test [3] (Mus musculus, B16-F10), 450 nM; in test [4] (Homo sapiens, MOLP-8) it was 240 nM.
`CNC(=O)N1N=C(c2ccc(N3C[C@@H]4C[C@H]3CN4C)cc2)c2cc(OC)c(OC)cc2C[C@H]1C` (relative stereo) [Example 40.1, [1S-[1R*,2(S*),4R*]]-7,8-Dimethoxy-N,4-dimethyl-1-[4-(5-methyl-2,5-diazabicyclo[2.2.1]hept-2-yl)phenyl]-4,5-dihydro-3H-2,3-benzodiazepine-3-carboxamide]: the half-inhibitory concentration (IC50) in test [1] amounted to 70 nM; in test [2], 200 nM; in test [3], 210 nM; in test [4] it was 100 nM.
As to `CNC(=O)N1N=C(c2ccc(F)c(N3C[C@@H]4C[C@H]3CN4C)c2)c2cc(OC)c(OC)cc2CC1C` (relative stereo) [Example 41, [1S-(1R*,4R*)]-1-[4-fluoro-3-(5-methyl-2,5-diazabicyclo[2.2.1]hept-2-yl)phenyl]-7,8-dimethoxy-4,5-dihydro-N,4-dimethyl-3H-2,3-benzodiazepine-3-carboxamide], the IC50 in test [1] was determined as 430 nM; in test [2] (Homo sapiens, MOLM-13) it was 1140 nM; in test [3] (Mus musculus, B16-F10), 1470 nM; in test [4] (Homo sapiens, MOLP-8), 690 nM.
